In patent US5837868A, “Process for preparation of chiral 3-amino-pyrrolidine and analogous bicyclic compounds” (Abbott Laboratories, priority 1997, dated 1998):
Where a name gives a salt, the structure may show the parent alone.

Columns and labels:
E. coli KNK 437 = assay: In vitro antibacterial activity, agar dilution MIC; format: cell-based; conditions: Escherichia coli, KNK437
Experimental: (§1) Each plate was inoculated with 1:100 (or 1:10 for slow-growing strains, primarily Micrococcus and Streptococcus) dilutions of up to 32 different microorganisms, using a Steers replicator block calibrated to deliver approximately 10^4 colony forming units (CFUs). The inoculated plates were incubated at from about 35° C. to about 37° C. for approximately 20-24 hours. In addition, a control plate using BHI agar containing no test compound was prepared and incubated at the beginning and at the end of each test. The quinolone antibacterial ciprofloxacin was used as a control ("Cntl").
(§2) The MIC was defined as the lowest concentration of test compound yielding no growth (a slight haze or sparsely isolated colonies at the inoculum spot) as compared to the growth control containing no test compound.

P. aeruginosa BMH 10 = assay: In vitro antibacterial activity, agar dilution MIC; format: cell-based; conditions: Pseudomonas aeruginosa, BMH10
Experimental: as §1, §2

P. aeruginosa K799/61 = assay: In vitro antibacterial activity, agar dilution MIC; format: cell-based; conditions: Pseudomonas aeruginosa, K799/61
Experimental: as §1, §2

[1] = tested on: Acinetob. calcoaceticus CMX 669; assay: In vitro antibacterial activity, agar dilution MIC; format: cell-based
Experimental: as §1, §2

Candida albicans CCH 442 = assay: In vitro antibacterial activity, agar dilution MIC; conditions: Candida albicans, CCH442
Experimental: as §1, §2

M. luteus ATCC 9341 = assay: In vitro antibacterial activity, agar dilution MIC; format: cell-based; conditions: Micrococcus luteus, ATCC9341
Experimental: as §1, §2

Escherichia coli Juhl = assay: In vitro antibacterial activity, agar dilution MIC; format: cell-based; conditions: Escherichia coli
Experimental: as §1, §2

[2] = tested on: Nocardia asteroides ATCC 9970; assay: In vitro antibacterial activity, agar dilution MIC; format: cell-based; conditions: Nocardia asteroides, ATCC9970
Experimental: as §1, §2

Staph. aureus ATCC 6538P = assay: In vitro antibacterial activity, agar dilution MIC; format: cell-based; conditions: Staphylococcus aureus, ATCC6538P
Experimental: as §1, §2

P. aeruginosa K799/WT = assay: In vitro antibacterial activity, agar dilution MIC; format: cell-based; conditions: Pseudomonas aeruginosa, K799/WT
Experimental: as §1, §2

[3] = tested on: Providencia stuartii CMX 640; assay: In vitro antibacterial activity, agar dilution MIC; format: cell-based; conditions: Providencia stuartii, CMX640
Experimental: as §1, §2

E. coli H560 = assay: In vitro antibacterial activity, agar dilution MIC; format: cell-based; conditions: Escherichia coli, H560
Experimental: as §1, §2

P. aeruginosa A5007 = assay: In vitro antibacterial activity, agar dilution MIC; format: cell-based; conditions: Pseudomonas aeruginosa, A5007
Experimental: as §1, §2

[4] = tested on: Strep. pyogenes 2548 INDUC; assay: microbe, parasite or virus in culture; format: cell-based; conditions: Streptococcus pyogenes, 2548INDUC
Experimental: as §1, §2

Staph. epidermidis 3519 = assay: In vitro antibacterial activity, agar dilution MIC; format: cell-based; conditions: Staphylococcus epidermidis, 3519
Experimental: as §1, §2

E. coli DC-2 = assay: In vitro antibacterial activity, agar dilution MIC; format: cell-based; conditions: Escherichia coli, DC2
Experimental: as §1, §2

Staph. aureus A5177 = assay: In vitro antibacterial activity, agar dilution MIC; format: cell-based; conditions: Staphylococcus aureus, A5177
Experimental: as §1, §2

Staph. aureus CMX 553 = assay: In vitro antibacterial activity, agar dilution MIC; format: cell-based; conditions: Staphylococcus aureus, CMX553
Experimental: as §1, §2

[5] = tested on: Strep. agalactiae CMX 508; assay: In vitro antibacterial activity, agar dilution MIC; format: cell-based; conditions: Streptococcus agalactiae, CMX508
Experimental: as §1, §2

[6] = tested on: Enter. aerogenes ATCC 13048; assay: In vitro antibacterial activity, agar dilution MIC; format: cell-based; conditions: Klebsiella aerogenes, ATCC13048
Experimental: as §1, §2

Staph. aureus NCTC10649M = assay: In vitro antibacterial activity, agar dilution MIC; format: cell-based; conditions: Staphylococcus aureus, NCTC10649M
Experimental: as §1, §2

[7] = tested on: Entero. faecium ATCC 8043; assay: In vitro antibacterial activity, agar dilution MIC; format: cell-based; conditions: Enterococcus faecium, ATCC8043
Experimental: as §1, §2

Pseudomonas cepacia 296I = assay: In vitro antibacterial activity, agar dilution MIC; format: cell-based; conditions: Burkholderia cepacia, 296I
Experimental: as §1, §2

M. luteus ATCC 4698 = assay: In vitro antibacterial activity, agar dilution MIC; format: cell-based; conditions: Micrococcus luteus, ATCC4698
Experimental: as §1, §2

Strep. pyogenes EES61 = assay: In vitro antibacterial activity, agar dilution MIC; format: cell-based; conditions: Streptococcus pyogenes, EES61
Experimental: as §1, §2

Myco. smegmatis ATCC 114 = assay: In vitro antibacterial activity, agar dilution MIC; format: cell-based; conditions: Mycolicibacterium smegmatis, ATCC114
Experimental: as §1, §2

[8] = tested on: Strep. pyogenes 930 CONST; assay: In vitro antibacterial activity, agar dilution MIC; format: cell-based; conditions: Streptococcus pyogenes, 930CONST
Experimental: as §1, §2

P. aeruginosa 2862 = assay: In vitro antibacterial activity, agar dilution MIC; format: cell-based; conditions: Pseudomonas aeruginosa, 2862
Experimental: as §1, §2

E. coli SS = assay: In vitro antibacterial activity, agar dilution MIC; format: cell-based; conditions: Escherichia coli
Experimental: as §1, §2

[9] = tested on: Staph. aureus 1775 Cipro. R.; assay: In vitro antibacterial activity, agar dilution MIC; format: cell-based; conditions: Staphylococcus aureus
Experimental: as §1, §2

[10] = tested on: Klebs. pneumoniae ATCC 8045; assay: In vitro antibacterial activity, agar dilution MIC; format: cell-based; conditions: Klebsiella pneumoniae, ATCC8045
Experimental: as §1, §2

Staph. aureus 5278 = assay: In vitro antibacterial activity, agar dilution MIC; format: cell-based; conditions: Staphylococcus aureus, 5278
Experimental: as §1, §2

Staph. aureus 642A = assay: In vitro antibacterial activity, agar dilution MIC; format: cell-based; conditions: Staphylococcus aureus, 642A
Experimental: as §1, §2

Strep. bovis A5169 = assay: In vitro antibacterial activity, agar dilution MIC; format: cell-based; conditions: Streptococcus equinus, A5169
Experimental: as §1, §2

P. aeruginosa 5263 = assay: microbe, parasite or virus in culture; conditions: Pseudomonas aeruginosa
Experimental: as §1, §2

In the case of Cc1c(N2C[C@@H]3CCCN[C@@H]3C2)c(F)cn2c(=O)c(C(=O)O)cc(C3CC3)c12 [Ex. 1, 1-cyclopropyl-8-(S,S-2,8-diaza-8-bicyclo[4.3.0]-nonyl)-7-fluoro-4H-9-methyl-4-oxo-quinolizine-3-carboxylic acid hydrochloride], the MIC (E. coli KNK 437) is reported as 0.05 µg/mL, the MIC (P. aeruginosa BMH 10) is reported as 0.1 µg/mL and the MIC (P. aeruginosa K799/61) is reported as 0.02 µg/mL. It also gave an MIC [1] of 0.02 µg/mL, an MIC (Candida albicans CCH 442) of over 100 µg/mL and an MIC (M. luteus ATCC 9341) of 0.1 µg/mL. It also gave an MIC (Escherichia coli Juhl) of 0.005 µg/mL, an MIC [2] of 3.1 µg/mL and an MIC (Staph. aureus ATCC 6538P) of 0.01 µg/mL. It also gave an MIC (P. aeruginosa K799/WT) of 0.2 µg/mL, an MIC [3] of 0.39 µg/mL and an MIC (E. coli H560) of 0.005 µg/mL. It also gave an MIC (P. aeruginosa A5007) of 0.2 µg/mL, an MIC [4] of 0.02 µg/mL and an MIC (Staph. epidermidis 3519) of 0.02 µg/mL. The MIC (E. coli DC-2) was 0.05 µg/mL, the MIC (Staph. aureus A5177) was 0.02 µg/mL and the MIC (Staph. aureus CMX 553) was 0.05 µg/mL. It also gave an MIC [5] of 0.05 µg/mL, an MIC [6] of 0.02 µg/mL and an MIC (Staph. aureus NCTC10649M) of 0.01 µg/mL. For the same molecule, the MIC [7] was 0.1 µg/mL, the MIC (Pseudomonas cepacia 296I) was 0.78 µg/mL and the MIC (M. luteus ATCC 4698) was 0.1 µg/mL. It also gave an MIC (Strep. pyogenes EES61) of 0.05 µg/mL, an MIC (Myco. smegmatis ATCC 114) of 0.02 µg/mL and an MIC [8] of 0.05 µg/mL. For the same molecule, the MIC (P. aeruginosa 2862) was 3.1 µg/mL, the MIC (E. coli SS) was 0.002 µg/mL and the MIC [9] was 0.39 µg/mL. The MIC [10] was 0.01 µg/mL, the MIC (Staph. aureus 5278) was 0.01 µg/mL and the MIC (Staph. aureus 642A) was 0.02 µg/mL. The MIC (Strep. bovis A5169) was 0.05 µg/mL and the MIC (P. aeruginosa 5263) was 3.1 µg/mL.
